Measurements from the OPERA property sets (Mansouri et al. 2018).
Values after ≈ are worked out from the molar mass of the structure shown.

**Q.** Which solubility (25 °C) does the source give for CO[C@H](C)[C@H](N)C(=O)O (racemic) here?
**A.** 3100 mM (≈ 413000 µg/mL)

**Q.** Which solubility does the source give for C[Si](C)(C)CN here?
**A.** 17.3 mM (≈ 1790 µg/mL)

**Q.** For CC(C)OC(=O)c1c(C(=O)O)cccc1[N+](=O)[O-], which solubility (20 °C) is on record?
**A.** 3.24 mM (≈ 820 µg/mL)

**Q.** For C=CCc1ccc(OCC(=O)O)c(OC)c1, which solubility is on record?
**A.** 5.27 mM (≈ 1170 µg/mL)

**Q.** For CCC1(CC(C)=O)C(=O)NC(=O)NC1=O, which solubility is on record?
**A.** 171 mM (≈ 36400 µg/mL)

**Q.** Which solubility (20 °C) does the source give for CC=C(CCCC)C(=O)NC(N)=O here?
**A.** 1.63 mM (≈ 300 µg/mL)

**Q.** With CCCCCCOC(=O)c1cccnc1 as the compound, how does the solubility (25 °C) read?
**A.** 2.22 mM (≈ 460 µg/mL)

**Q.** For NC(=O)NCNC(N)=O, which solubility (28 °C) is on record?
**A.** 223 mM (≈ 29400 µg/mL)

**Q.** For CC1=CCCN1C, which solubility is on record?
**A.** 1340 mM (≈ 130000 µg/mL)

**Q.** With CC(C(=O)O)N(CCC#N)CCC#N (stereo unspecified) as the compound, how does the solubility (25 °C) read?
**A.** 666 mM (≈ 130000 µg/mL)

**Q.** For CC(NC(N)=O)NC(N)=O, which solubility (28 °C) is on record?
**A.** 256 mM (≈ 37400 µg/mL)

**Q.** Which solubility (26 °C) does the source give for N#CCCN(CCC#N)[C@@H](CCC(=O)O)C(=O)O here?
**A.** 592 mM (≈ 150000 µg/mL)

**Q.** Which solubility (25 °C) does the source give for Cc1ccccc1N(C)C(N)=O here?
**A.** 395 mM (≈ 64900 µg/mL)

**Q.** Which solubility (25 °C) does the source give for CCOC(=S)SC(C)C(=O)O (stereo unspecified) here?
**A.** 35.6 mM (≈ 6910 µg/mL)

**Q.** With CC(NC(N)=O)C(=O)O (stereo unspecified) as the compound, how does the solubility (20 °C) read?
**A.** 133 mM (≈ 17600 µg/mL)

**Q.** With NC(=S)NCNC(N)=S as the compound, how does the solubility (21 °C) read?
**A.** 21.3 mM (≈ 3500 µg/mL)

**Q.** For CCCOCC(O)COCCC, which solubility is on record?
**A.** 454 mM (≈ 80000 µg/mL)

**Q.** Which solubility does the source give for NCCCNc1ccccc1 here?
**A.** 22.2 mM (≈ 3330 µg/mL)

**Q.** For CC(=O)c1cccs1, which solubility (30 °C) is on record?
**A.** 111 mM (≈ 14000 µg/mL)

**Q.** With CCS(=O)(=O)CCSP(=S)(OC)OC as the compound, how does the solubility read?
**A.** 2.87 mM (≈ 800 µg/mL)

**Q.** For CCSC(=S)N[C@@H](CC(=O)O)C(=O)O, which solubility (25 °C) is on record?
**A.** 41.1 mM (≈ 9750 µg/mL)

**Q.** Which solubility (25 °C) does the source give for CCCCCCP(=O)(OCC)OCC here?
**A.** 2.7 mM (≈ 600 µg/mL)

**Q.** Which solubility (23 °C) does the source give for NC(=O)C[C@H](NC(N)=O)C(=O)O here?
**A.** 308 mM (≈ 54000 µg/mL)

**Q.** Which solubility (25 °C) does the source give for CCCCOC(=O)c1cccnc1 here?
**A.** 14.6 mM (≈ 2610 µg/mL)

**Q.** Which solubility (20 °C) does the source give for NC1=NC(C(=O)O)CCS1 (stereo unspecified) here?
**A.** 187 mM (≈ 30000 µg/mL)

**Q.** With O=C(O)c1ccc(NC(=O)c2cccnc2)cc1 as the compound, how does the solubility (25 °C) read?
**A.** 0.826 mM (≈ 200 µg/mL)

**Q.** With O=C(O)c1ccc(Br)c([N+](=O)[O-])c1 as the compound, how does the solubility (25 °C) read?
**A.** 1.08 mM (≈ 265 µg/mL)

**Q.** With Cn1c(=O)cnc2cncnc21 as the compound, how does the solubility (20 °C) read?
**A.** 123 mM (≈ 20000 µg/mL)

**Q.** Which solubility (26 °C) does the source give for CSC1=CC(=O)c2ccccc2C1=O here?
**A.** 0.0343 mM (≈ 7 µg/mL)

**Q.** Which solubility (24 °C) does the source give for O=C(O)c1ccc(C(=O)O)c(Br)c1 here?
**A.** 7.35 mM (≈ 1800 µg/mL)

**Q.** For CC(C)(S(C)(=O)=O)S(C)(=O)=O, which solubility is on record?
**A.** 35.4 mM (≈ 7100 µg/mL)

**Q.** With O=C(c1ccccc1)N(O)c1cccc2ccccc12 as the compound, how does the solubility read?
**A.** 0.494 mM (≈ 130 µg/mL)

**Q.** With CCCCCCCCOCCO as the compound, how does the solubility (25 °C) read?
**A.** 7.5 mM (≈ 1310 µg/mL)

**Q.** Which solubility does the source give for C[C@@H](O)CCCC=O here?
**A.** 344 mM (≈ 40000 µg/mL)

**Q.** Which solubility (20 °C) does the source give for O=[N+]([O-])c1ccccc1CO here?
**A.** 32.7 mM (≈ 5000 µg/mL)

**Q.** For Cc1ccc(C)c(C)n1, which solubility (26 °C) is on record?
**A.** 257 mM (≈ 31200 µg/mL)

**Q.** With CCC(CC)(S(=O)(=O)CC)S(=O)(=O)CC as the compound, how does the solubility read?
**A.** 8.66 mM (≈ 2220 µg/mL)

**Q.** Which solubility (25 °C) does the source give for Cc1ccc(/N=N/c2cc(C)ccc2N)cc1 here?
**A.** 0.125 mM (≈ 28.2 µg/mL)

**Q.** Which solubility does the source give for COc1ccc(NCC(O)CO)cc1 (stereo unspecified) here?
**A.** 507 mM (≈ 100000 µg/mL)

**Q.** For CC(C)C[C@H](N)C(=O)N[C@H](CCC(N)=O)C(=O)O, which solubility (25 °C) is on record?
**A.** 27 mM (≈ 7000 µg/mL)

**Q.** For O=C(O)c1cc(N=Nc2ccccc2)ccc1O, which solubility (25 °C) is on record?
**A.** 0.879 mM (≈ 213 µg/mL)

**Q.** Which solubility (25 °C) does the source give for O=C(O)c1ccc([N+](=O)[O-])c2cccnc12 here?
**A.** 0.683 mM (≈ 149 µg/mL)

**Q.** For CC(=O)c1ccc(O)c(C(=O)O)c1, which solubility is on record?
**A.** 5.88 mM (≈ 1060 µg/mL)

**Q.** Which solubility does the source give for CC12CCC(CC1=O)C(C)(C)O2 (stereo unspecified) here?
**A.** 119 mM (≈ 20000 µg/mL)

**Q.** For Cc1nc2c(c(=O)[nH]c(=O)n2C)n1C, which solubility is on record?
**A.** 286 mM (≈ 55600 µg/mL)

**Q.** For CCOC(C)C(=O)C=O (stereo unspecified), which solubility is on record?
**A.** 699 mM (≈ 91000 µg/mL)

**Q.** For O=C(O)c1occ(Br)c1Br, which solubility (20 °C) is on record?
**A.** 8.15 mM (≈ 2200 µg/mL)

**Q.** Which solubility (20 °C) does the source give for Oc1ccc2c(c1)Sc1ccccc1N2 here?
**A.** 2.66 mM (≈ 573 µg/mL)

**Q.** For CCC(C#N)(CC)C(=O)NC(N)=O, which solubility (20 °C) is on record?
**A.** 27.3 mM (≈ 5000 µg/mL)

**Q.** For CC(C)CCCCCO, which solubility (25 °C) is on record?
**A.** 4.97 mM (≈ 647 µg/mL)

**Q.** Which solubility does the source give for CCC(NC(=N)N)C(=O)O (stereo unspecified) here?
**A.** 138 mM (≈ 20000 µg/mL)

**Q.** Which solubility (25 °C) does the source give for Cc1cc(C)c([PH](=O)O)c(C)c1 here?
**A.** 1.62 mM (≈ 299 µg/mL)

**Q.** With O=C1CC=CS1 as the compound, how does the solubility (25 °C) read?
**A.** 599 mM (≈ 60000 µg/mL)

**Q.** Which solubility (25 °C) does the source give for C[C@H](O)C(F)(F)F here?
**A.** 2040 mM (≈ 233000 µg/mL)

**Q.** For NC(N)=N/C(N)=N/c1ccc2ccccc2c1, which solubility (21 °C) is on record?
**A.** 2.82 mM (≈ 641 µg/mL)

**Q.** With CCCCCCC(O)C(O)C(=O)O (stereo unspecified) as the compound, how does the solubility (20 °C) read?
**A.** 28.4 mM (≈ 5400 µg/mL)

**Q.** With O=Cc1ccc(Br)o1 as the compound, how does the solubility (20 °C) read?
**A.** 28.6 mM (≈ 5000 µg/mL)

**Q.** For O=C(O)CCCCCCCCCCO, which solubility (20 °C) is on record?
**A.** 1.98 mM (≈ 400 µg/mL)

**Q.** For CCC(Cl)(CC)C(N)=O, which solubility is on record?
**A.** 93.6 mM (≈ 14000 µg/mL)

**Q.** Which solubility (25 °C) does the source give for CC(=O)N[C@@H](C(=O)O)C(C)C (racemic) here?
**A.** 354 mM (≈ 56400 µg/mL)

**Q.** With NC(=O)N/N=C/[C@H](O)[C@@H](O)[C@H](O)CO as the compound, how does the solubility (20 °C) read?
**A.** 743 mM (≈ 154000 µg/mL)
